Test results from patent publication US5059590A, “Imidazole derivatives, process for production thereof, and use thereof” (Yamasa Shoyu Kabushiki Kaisha, priority 1988, dated 1991).
In brackets after ≈: the same amount, converted by molar mass.

Key:
Type in all cases: cell-based
PANC-1 = assay: In vitro anti-proliferative activity against human tumor cell lines (PANC-1); details: PANC-1, Pancreatic carcinoma, 72 hours
Method: (§1) In vitro anti-proliferative activity against human tumor cell lines
(§2) Test Compound: 5-ethynyl-1-β-D-ribofuranosylimidazole-4-carboxamide
(§3) A variety of human tumor cell lines are suspended in media specified according to the species of the cell lines to predetermined cell concentrations as shown in the following Table.
(§4) 1 ml of the resulting cell suspension is seeded into each well of a 24 multi-well plate and incubated in a 5% CO2 -incubator at 37° C. for 24 hours. The culture medium is then replaced by a medium containing no test compound or by an appropriate amount of a serially diluted test compound solution. […] The number of the cells in each well is counted with a Coulter counter (Model ZB, Coulter Electronics), and the growth inhibition percent (%) of the cells at each concentration of a test compound is determined by the following equation: [formula] Tx: Number of the cells in a well containing a test compound as counted upon completion of the incubation (cells/ml) […] Cx: Number of the cells in a well containing no test compound as counted upon completion of the incubation (cells/ml)
(§5) Co: Number of the cells in a well containing no test compound as counted at the initiation of the incubation (cells/ml) […]

Dul45 = assay: In vitro anti-proliferative activity against human tumor cell lines (Dul45); details: Dul45, Prostate carcinoma, 72 hours
Method: as §1, §2, §3, §4, §5

KU-2 = assay: In vitro anti-proliferative activity against human tumor cell lines (KU-2); details: KU-2, Renal cell carcinoma, 72 hours
Method: as §1, §2, §3, §4, §5

WiDr = assay: In vitro anti-proliferative activity against human tumor cell lines (WiDr); details: Colon adenocarcinoma, 72 hours
Method: as §1, §2, §3, §4, §5

SK-MES-1 = assay: In vitro anti-proliferative activity against human tumor cell lines (SK-MES-1); details: SK-MES-1, Lung Squamous carcinoma, 72 hours
Method: as §1, §2, §3, §4, §5

QG-56 = assay: In vitro anti-proliferative activity against human tumor cell lines (QG-56); details: QG-56, Lung squamous carcinoma, 72 hours
Method: as §1, §2, §3, §4, §5

[1] = tested on: L1210 mouse leukemia cells; assay: In vitro anti-proliferative activity against mouse tumor cell lines, Test Method 1 (L1210); details: L1210, 48 hours, 37° C.
Method: In vitro anti-proliferative activity against mouse tumor cell lines
1. L1210 mouse leukemia cells are cultivated in RPMI1640 medium supplemented with 10% fetal bovine serum, and the resultant cells are diluted with the same medium in the logarithmic growth phase to a concentration of 1.6×10^5 cells/ml.
2. To test tubes each containing 0.9 ml of the above obtained diluted cell suspension is added 0.1 ml each of test solutions serially diluted with a culture medium or phosphate-buffered saline (PBS), and the mixture is incubated in a 2% CO2 -incubator at 37° C. for 48 hours.
3. After incubation, the number of the cells in each tube is counted with a Coulter counter (Model ZB, Coulter Electronics), and the growth inhibition percent (%) of the cells at each concentration of a test compound is calculated from the following equation: [formula] Tx: Number of the cells in a test tube containing a test compound as counted upon completion of the incubation (cells/ml)
Cx: Number of the cells in a test tube containing no test compound as counted upon completion of the incubation (cells/ml)
Co: Number of the cells in a test tube containing no test compound as counted at the initiation of the incubation (cells/ml)
4. The concentration of the test compound, which causes cell growth inhibition by 50%, is determined by the graph showing the relationship between the growth inhibition percent and the concentration of the test compound, and is defined as 50% inhibitory concentration (IC50).

U-2OS = assay: In vitro anti-proliferative activity against human tumor cell lines (U-2OS); details: U2OS, Osteogenic sarcoma, 72 hours
Method: as §1, §2, §3, §4, §5

MG-63 = assay: In vitro anti-proliferative activity against human tumor cell lines (MG-63); details: MG-63, Osteogenic sarcoma, 72 hours
Method: as §1, §2, §3, §4, §5

A549 = assay: In vitro anti-proliferative activity against human tumor cell lines (A549); details: A549, Lung carcinoma, 72 hours
Method: as §1, §2, §3, §4, §5

C#Cc1c(C(N)=O)ncn1[C@@H]1O[C@H](CO)[C@@H](O)[C@H]1O [5-ethynyl-1-β-D-ribofuranosylimidazole-4-carboxamide]
IC50 (PANC-1): 0.9 µg/mL (≈ 3.37 µM) | IC50 (Dul45): < 0.1 µg/mL | IC50 (KU-2): < 0.1 µg/mL | IC50 (WiDr): 0.46 µg/mL (≈ 1.72 µM) | IC50 (SK-MES-1): 0.26 µg/mL (≈ 0.973 µM) | IC50 (QG-56): 0.37 µg/mL (≈ 1.38 µM) | IC50 [1]: 0.18 µg/mL (≈ 0.674 µM) | IC50 (U-2OS): 0.62 µg/mL (≈ 2.32 µM) | IC50 (MG-63): 0.38 µg/mL (≈ 1.42 µM) | IC50 (A549): 0.37 µg/mL (≈ 1.38 µM)
